ChEMBL document CHEMBL4732160, “Design and synthesis of 7-O-1,2,3-triazole hesperetin derivatives to relieve inflammation of acute liver injury in mice” (Eur J Med Chem, 2021)
Each block holds one compound with its values, some of them ahead of it. Active and inactive are the calls of the source. The rule behind the calls is not given here.

Assays:
[1] = tested on: RAW264.7; assay: Antiinflammatory activity in mouse RAW264.7 cells assessed as inhibition of LPS-induced NO production at 10 uM preincubated for 2 hrs followed by LPS stimulation and measured after 24 hrs by Griess method relative to control; type: functional; conditions: time 26 hrs
[2] = tested on: RAW264.7; assay: Antiinflammatory activity in mouse RAW264.7 cells assessed as inhibition of LPS-induced NO production preincubated for 2 hrs followed by LPS stimulation and measured after 24 hrs by Griess method; type: functional, cell-based
[3] = Cytotoxicity against mouse RAW264.7 cells assessed as cell viability at 40 uM measured after 24 hrs by MTT assay relative to control; type: cell-based
[4] = tested on: RAW264.7; assay: Antiinflammatory activity in mouse RAW264.7 cells assessed as inhibition of LPS-induced TNFalpha production at 10 uM preincubated for 1 hr followed by LPS stimulation and measured after 22 hrs by ELISA; type: functional, cell-based; conditions: time 23.0 hrs
[5] = tested on: RAW264.7; assay: Antiinflammatory activity in mouse RAW264.7 cells assessed as inhibition of LPS-induced IL1beta production at 10 uM preincubated for 1 hr followed by LPS stimulation and measured after 22 hrs by ELISA; type: functional, cell-based; conditions: time 23.0 hrs
[6] = tested on: RAW264.7; assay: Antiinflammatory activity in mouse RAW264.7 cells assessed as inhibition of LPS-induced IL6 production at 10 uM preincubated for 1 hr followed by LPS stimulation and measured after 22 hrs by ELISA; type: functional, cell-based; conditions: time 23.0 hrs

- IC50 [2]: 18.9 µM
SMILES: COc1ccc([C@@H]2CC(=O)c3c(O)cc(OCc4cn(CC(=O)c5ccccc5OC)nn4)cc3O2)cc1O
- inhibition at 10 µM [1]: 22.8%
- viability at 24 h, 40 µM [3]: 132%
- inhibition [4]: Active
- inhibition [5]: Active
- inhibition [6]: Active

- IC50 [2]: 10.5 µM
SMILES: COc1ccc([C@@H]2CC(=O)c3c(O)cc(OCc4cn(C5CCCC5)nn4)cc3O2)cc1O
- inhibition at 10 µM [1]: 53.8%
- viability at 24 h, 40 µM [3]: 110%
- inhibition [4]: Active
- inhibition [5]: Active
- inhibition [6]: Active

- IC50 [2]: 15.3 µM
SMILES: COc1ccc([C@@H]2CC(=O)c3c(O)cc(OCc4cn(C5CCC5)nn4)cc3O2)cc1O
- inhibition at 10 µM [1]: 44.2%
- viability at 24 h, 40 µM [3]: 111%
- inhibition [4]: Active
- inhibition [5]: Active
- inhibition [6]: Active

- IC50 [2]: 15 µM
SMILES: CCn1cc(COc2cc(O)c3c(c2)O[C@H](c2ccc(OC)c(O)c2)CC3=O)nn1
- inhibition at 10 µM [1]: 41.4%
- viability at 24 h, 40 µM [3]: 106%
- inhibition [4]: Active
- inhibition [5]: Active
- inhibition [6]: Active

- IC50 [2]: 18 µM
SMILES: COc1ccc([C@@H]2CC(=O)c3c(O)cc(OCc4cn(Cc5cccc(C#N)c5)nn4)cc3O2)cc1O
- inhibition at 10 µM [1]: 32.9%
- viability at 24 h, 40 µM [3]: 56%
- inhibition [4]: Active
- inhibition [5]: Active
- inhibition [6]: Active

- IC50 [2]: 15.6 µM
SMILES: COc1ccc([C@@H]2CC(=O)c3c(O)cc(OCc4cn(C5CCCCC5)nn4)cc3O2)cc1O
- inhibition at 10 µM [1]: 42.4%
- viability at 24 h, 40 µM [3]: 124%
- inhibition [4]: Active
- inhibition [5]: Active
- inhibition [6]: Active

- IC50 [2]: 18.9 µM
SMILES: COc1ccc([C@@H]2CC(=O)c3c(O)cc(OCc4cn(CC(=O)c5ccccc5F)nn4)cc3O2)cc1O
- inhibition at 10 µM [1]: 34.5%
- viability at 24 h, 40 µM [3]: 113%
- inhibition [4]: Active
- inhibition [5]: Active
- inhibition [6]: Active

- IC50 [2]: 18.2 µM
SMILES: COc1ccc([C@@H]2CC(=O)c3c(O)cc(OCc4cn(Cc5cccc(Cl)c5)nn4)cc3O2)cc1O
- inhibition at 10 µM [1]: 28%
- viability at 24 h, 40 µM [3]: 120%
- inhibition [4]: Active
- inhibition [5]: Active
- inhibition [6]: Active

- IC50 [2]: 16.7 µM
SMILES: COc1ccc([C@@H]2CC(=O)c3c(O)cc(OCc4cn(CCCO)nn4)cc3O2)cc1O
- inhibition at 10 µM [1]: 32.8%
- viability at 24 h, 40 µM [3]: 121%
- inhibition [4]: Active
- inhibition [5]: Active
- inhibition [6]: Active

- IC50 [2]: 13.3 µM
SMILES: COc1ccc([C@@H]2C/C(=N\O)c3c(O)cc(OCc4cn(Cc5ccccc5Cl)nn4)cc3O2)cc1O
- inhibition at 10 µM [1]: 33%
- viability at 24 h, 40 µM [3]: 86%
- inhibition [4]: Active
- inhibition [5]: Active
- inhibition [6]: Active

- IC50 [2]: 6.14 µM
SMILES: COc1ccc([C@@H]2CC(=O)c3c(O)cc(OCc4cn(Cc5ccccc5Cl)nn4)cc3O2)cc1O
- inhibition at 10 µM [1]: 63.1%
- viability at 24 h, 40 µM [3]: 83%
- inhibition [4]: Active
- inhibition [5]: Active
- inhibition [6]: Active

SMILES: COc1ccc2c(c1)c(CC(=O)O)c(C)n2C(=O)c1ccc(Cl)cc1 [INDOMETHACIN]
- viability at 24 h, 40 µM [3]: 87%
- inhibition [4]: Active
- inhibition [5]: Active
- inhibition [6]: Active

- IC50 [2]: 19.9 µM
SMILES: COc1ccc([C@@H]2CC(=O)c3c(O)cc(OCc4cn(Cc5cccc(C(F)(F)F)c5)nn4)cc3O2)cc1O
- inhibition at 10 µM [1]: 35.5%
- viability at 24 h, 40 µM [3]: 93%
- inhibition [4]: Active
- inhibition [5]: Active
- inhibition [6]: Active

- IC50 [2]: 19.1 µM
SMILES: C#CCOc1cc(O)c2c(c1)O[C@H](c1ccc(OC)c(O)c1)C/C2=N\O
- inhibition at 10 µM [1]: 38.7%

- IC50 [2]: 11.9 µM
SMILES: COc1ccc([C@@H]2CC(=O)c3c(O)cc(OCc4cn(CC5CC5)nn4)cc3O2)cc1O
- inhibition at 10 µM [1]: 48.8%
- viability at 24 h, 40 µM [3]: 87%
- inhibition [4]: Active
- inhibition [5]: Active
- inhibition [6]: Active

- IC50 [2]: 48.6 µM
SMILES: COc1ccc([C@@H]2CC(=O)c3c(O)cc(O)cc3O2)cc1O [HESPERETIN]
- inhibition at 10 µM [1]: 18.4%
- viability at 24 h, 40 µM [3]: 121%
- inhibition [4]: Active
- inhibition [5]: Active
- inhibition [6]: Active

SMILES: Cc1ccc(-c2cc(C(F)(F)F)nn2-c2ccc(S(N)(=O)=O)cc2)cc1 [CELECOXIB]
- viability at 24 h, 40 µM [3]: 83%
- inhibition [4]: Active
- inhibition [5]: Active
- inhibition [6]: Active

- IC50 [2]: 7.32 µM
SMILES: COc1ccc([C@@H]2CC(=O)c3c(O)cc(OCc4cn(Cc5ccccc5F)nn4)cc3O2)cc1O
- inhibition at 10 µM [1]: 63.3%
- viability at 24 h, 40 µM [3]: 74%
- inhibition [4]: Active
- inhibition [5]: Active
- inhibition [6]: Active

- IC50 [2]: 12.5 µM
SMILES: COc1ccc([C@@H]2CC(=O)c3c(O)cc(OCc4cn(Cc5ccccc5C(F)(F)F)nn4)cc3O2)cc1O
- inhibition at 10 µM [1]: 48%
- viability at 24 h, 40 µM [3]: 135%
- inhibition [4]: Active
- inhibition [5]: Active
- inhibition [6]: Active

- IC50 [2]: 6.13 µM
SMILES: COc1ccc([C@@H]2C/C(=N\O)c3c(O)cc(OCc4cn(Cc5ccccc5)nn4)cc3O2)cc1O
- inhibition at 10 µM [1]: 63.6%
- viability at 24 h, 40 µM [3]: 93%
- inhibition [4]: Active
- inhibition [5]: Active
- inhibition [6]: Active

- IC50 [2]: 3.14 µM
SMILES: CCn1cc(COc2cc(O)c3c(c2)O[C@H](c2ccc(OC)c(O)c2)C/C3=N\O)nn1
- inhibition at 10 µM [1]: 65.1%
- viability at 24 h, 40 µM [3]: 101%
- inhibition [4]: Active
- inhibition [5]: Active
- inhibition [6]: Active

- IC50 [2]: 16.8 µM
SMILES: COc1ccc([C@@H]2CC(=O)c3c(O)cc(OCc4cn(Cc5ccc(C)cc5)nn4)cc3O2)cc1O
- inhibition at 10 µM [1]: 29.4%
- viability at 24 h, 40 µM [3]: 110%
- inhibition [4]: Active
- inhibition [5]: Active
- inhibition [6]: Active

- IC50 [2]: 11 µM
SMILES: COc1ccc([C@@H]2CC(=O)c3c(O)cc(OCc4cn(Cc5ccccc5)nn4)cc3O2)cc1O
- inhibition at 10 µM [1]: 49.8%
- viability at 24 h, 40 µM [3]: 98%
- inhibition [4]: Active
- inhibition [5]: Active
- inhibition [6]: Active

- IC50 [2]: 17.4 µM
SMILES: COc1ccc([C@@H]2CC(=O)c3c(O)cc(OCc4cn(Cc5cccc(C)c5)nn4)cc3O2)cc1O
- inhibition at 10 µM [1]: 31%
- viability at 24 h, 40 µM [3]: 113%
- inhibition [4]: Active
- inhibition [5]: Active
- inhibition [6]: Active

- IC50 [2]: 13.8 µM
SMILES: C=CCn1cc(COc2cc(O)c3c(c2)O[C@H](c2ccc(OC)c(O)c2)CC3=O)nn1
- inhibition at 10 µM [1]: 50.1%
- viability at 24 h, 40 µM [3]: 118%
- inhibition [4]: Active
- inhibition [5]: Active
- inhibition [6]: Active

- IC50 [2]: 17.8 µM
SMILES: COc1ccc([C@@H]2CC(=O)c3c(O)cc(OCc4cn(CCO)nn4)cc3O2)cc1O
- inhibition at 10 µM [1]: 24.7%
- viability at 24 h, 40 µM [3]: 112%
- inhibition [4]: Active
- inhibition [5]: Active
- inhibition [6]: Active

- IC50 [2]: 16.9 µM
SMILES: COc1ccc([C@@H]2CC(=O)c3c(O)cc(OCc4cn(CC(=O)c5ccccc5)nn4)cc3O2)cc1O
- inhibition at 10 µM [1]: 32.1%
- viability at 24 h, 40 µM [3]: 112%
- inhibition [4]: Active
- inhibition [5]: Active
- inhibition [6]: Active

- IC50 [2]: 20.9 µM
SMILES: C#CCOc1cc(O)c2c(c1)O[C@H](c1ccc(OC)c(O)c1)CC2=O
- inhibition at 10 µM [1]: 35.2%
